The results in this text go back to patent US20240067693A1, “POLYPEPTIDES AND USES THEREOF” (MEDIMMUNE LIMITED, priority 2020, published 2024).

For data set [1], the target named is T1, rat calcitonin receptor (rat CTR) (Rattus norvegicus, UniProt P32214).
T1 construct: expressed in transfected cells
T1 sequence (P32214 25-516): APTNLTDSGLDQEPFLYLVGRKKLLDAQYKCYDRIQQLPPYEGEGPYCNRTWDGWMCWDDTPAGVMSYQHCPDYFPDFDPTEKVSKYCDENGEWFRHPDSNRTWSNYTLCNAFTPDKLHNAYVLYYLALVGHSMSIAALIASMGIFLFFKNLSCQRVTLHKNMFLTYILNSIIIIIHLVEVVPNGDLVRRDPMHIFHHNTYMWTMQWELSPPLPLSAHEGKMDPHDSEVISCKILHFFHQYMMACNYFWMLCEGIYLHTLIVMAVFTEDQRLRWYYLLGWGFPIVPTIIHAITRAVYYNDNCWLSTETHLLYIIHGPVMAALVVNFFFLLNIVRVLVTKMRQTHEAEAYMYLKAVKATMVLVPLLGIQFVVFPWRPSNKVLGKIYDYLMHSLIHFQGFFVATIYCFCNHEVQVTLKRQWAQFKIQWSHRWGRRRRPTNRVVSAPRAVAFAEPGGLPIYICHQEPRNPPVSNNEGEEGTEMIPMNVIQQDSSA
Nature of the data set: cAMP production in HEK cells with stable recombinant expression of rat calcitonin receptor (rat CTR). In kind it is cell-based. The conditions noted are these: assay buffer with 0.1% BSA. The method in brief: (§1)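 EC50 values come from 4-parameter logistic fits of HTRF cAMP signal, normalised to maximal calcitonin or amylin effect. Peptides were tested in duplicate for 30 min at RT in IBMX-containing (0.5 mM) BSA/HEPES buffer pH 7.4 on stable 1321N1 (human CTR, AMYR3) or HEK (rat CTR, AMYR3) lines.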
A general note: cAMP levels reflect the balance of adenylyl cyclase and phosphodiesterase activity.

In data set [2] the target is T2, rat amylin receptor (calcitonin receptor co-expressed with receptor activity modifying protein, RAMP3) (Rat AMYR3) (Rattus norvegicus, UniProt P32214+Q9JJ73).
T2 construct: expressed in transfected cells
T2 sequence (P32214 25-516): T1 sequence (P32214 25-516)
T2 sequence (Q9JJ73 23-147 partner): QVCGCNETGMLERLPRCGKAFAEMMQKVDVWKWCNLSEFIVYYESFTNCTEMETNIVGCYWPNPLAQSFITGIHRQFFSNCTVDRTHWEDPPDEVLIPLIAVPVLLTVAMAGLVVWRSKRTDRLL
The data set is described as follows: cAMP production in HEK cells with stable recombinant expression of rat amylin receptor (Rat AMYR3). It counts as cell-based. The note with it: assay buffer with 0.1% BSA. The method in brief:
as §1

A short description of data set [3]: Pharmacokinetic determination via IV and SC administration in Sprague Dawley rats. The note with it: male, rat, plasma, 20 nmol/kg.

Structures are written as SMILES. Numbered stars: 1 amine (or outer) side, 2 acyl side, 3 side chain; on linkers, the order of the positions; unused ones are H or OH. Bridge positions count the residues as written; N and C are the ends. Square brackets hold non-standard residues; d marks the D form. Side chains are listed from the residue outwards. Peptide text beside a SMILES is read from it. * marks the point of attachment. C18 diacid = O=C(O)CCCCCCCCCCCCCCCCC(=O)*; γGlu = O=C(O)[C@H](CCC(=O)[*:2])N[*:1]; αMeF = C[C@](N)(Cc1ccccc1)C(=O)O

As a reminder, the EC50 is the concentration needed to bring the measured effect to its halfway point. Usually half-life stands for the time needed for the level to fall by half in the phase considered. Take `CC[C@H](C)[C@H](NC(=O)[C@@H]1CCCN1C(=O)CNC(=O)[C@](C)(Cc1ccccc1)NC(=O)[C@H](CC(N)=O)NC(=O)[C@H](CC(N)=O)NC(=O)[C@H](CO)NC(=O)[C@H](CO)NC(=O)[C@H](Cc1c[nH]cn1)NC(=O)[C@H](CCCNC(=N)N)NC(=O)[C@H](CC(C)C)NC(=O)[C@H](Cc1ccccc1)NC(=O)[C@H](CC(N)=O)NC(=O)[C@H](C)NC(=O)[C@H](CC(C)C)NC(=O)[C@H](CCCNC(=N)N)NC(=O)[C@H](CCC(N)=O)NC(=O)[C@@H](NC(=O)[C@H](C)NC(=O)[C@@H]1CSSC[C@H](NC(=O)[C@@H](N)CCCCNC(=O)CC[C@H](NC(=O)CC[C@H](NC(=O)CCCCCCCCCCCCCCCCC(=O)O)C(=O)O)C(=O)O)C(=O)N[C@@H](CC(N)=O)C(=O)N[C@@H]([C@@H](C)O)C(=O)N[C@@H](C)C(=O)N[C@@H]([C@@H](C)O)C(=O)N1)[C@@H](C)O)C(=O)N[C@@H](CC(C)C)C(=O)N1CCC[C@H]1C(=O)N1CCC[C@H]1C(=O)N[C@H](C(=O)N[C@@H](CCC(=O)O)C(=O)N[C@H](C(=O)NCC(=O)N[C@@H](CO)C(=O)N[C@@H](CC(N)=O)C(=O)N[C@H](C(=O)N[C@@H](Cc1ccc(O)cc1)C(N)=O)[C@@H](C)O)C(C)C)[C@@H](C)O` [Peptide 18, K(γE-γE-C18diacid)[CNTATC]ATQRLANFLRHSSNN(αMePhe)GPILPPTEVGSNTY-amide] (H-K([γGlu-γGlu-C18 diacid])CNTATCATQRLANFLRHSSNN[αMeF]GPILPPTEVGSNTY-NH2; disulfide 2-7; N-terminus assumed): the EC50 is 3090 pM in data set [1] and 16.5 pM in data set [2]. Also, the half-life in data set [3] (iv) is 12 h; in data set [3] (sc), 13.6 h.
On to `CC[C@H](C)[C@H](NC(=O)[C@@H]1CCCN1C(=O)CNC(=O)[C@](C)(Cc1ccccc1)NC(=O)[C@H](CC(N)=O)NC(=O)[C@H](CC(N)=O)NC(=O)[C@H](CO)NC(=O)[C@H](CO)NC(=O)[C@H](Cc1c[nH]cn1)NC(=O)[C@H](CCCNC(=N)N)NC(=O)[C@H](CC(C)C)NC(=O)[C@H](Cc1ccccc1)NC(=O)[C@H](CCC(=O)O)NC(=O)[C@H](C)NC(=O)[C@H](CC(C)C)NC(=O)[C@H](CCCNC(=N)N)NC(=O)[C@H](CCC(N)=O)NC(=O)[C@@H](NC(=O)[C@H](C)NC(=O)[C@@H]1CSSC[C@H](NC(=O)CC[C@H](NC(=O)CCCCCCCCCCCCCCCCC(=O)O)C(=O)O)C(=O)N[C@@H](CC(N)=O)C(=O)N[C@@H]([C@@H](C)O)C(=O)N[C@@H](C)C(=O)N[C@@H]([C@@H](C)O)C(=O)N1)[C@@H](C)O)C(=O)N[C@@H](CC(C)C)C(=O)N1CCC[C@H]1C(=O)N1CCC[C@H]1C(=O)N[C@H](C(=O)N[C@@H](CC(N)=O)C(=O)N[C@H](C(=O)NCC(=O)N[C@@H](CO)C(=O)N[C@@H](CC(N)=O)C(=O)N[C@H](C(=O)N[C@@H](Cc1ccc(O)cc1)C(N)=O)[C@@H](C)O)C(C)C)[C@@H](C)O` [Peptide 10, C18diacid-γE-[CNTATC]ATQRLAEFLRHSSNN(αMePhe)GPILPPTNVGSNTY-amide] ({C18 diacid-γGlu}-CNTATCATQRLAEFLRHSSNN[αMeF]GPILPPTNVGSNTY-NH2; disulfide 1-6), for which the results for the EC50 in data set [1] and in data set [2] were 2780 pM and 12.1 pM, respectively. Further, the half-life in data set [3] (iv) was 10.1 h; in data set [3] (sc), 8.8 h.
